Columns and labels:
Type in all cases: in vivo
[1] = system: Tetranychus urticae (spider mites - adult); experiment: Contact test, spider mites - adult (TUa), French bean leaf; details: 72 h, 3 days, read-out: TUA grading of mortality
Summary of the method: (§1)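 Insects placed on host plant or food medium; medium and/or insects treated with aqueous preparations of 100 to 500 ppm Product by weight, made from acetone solutions diluted in water with 0.1% wetting agent. Mortality was then assessed, usually after one to seven days.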

Myzus persicae (aphids) = experiment: Contact test, aphids (MP), Chinese Cabbage leaf; details: 72 h, 3 days, read-out: MP grading of mortality
Summary of the method: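 Aphids on a host plant and/or the plant itself were treated with 100–500 ppm of product, applied from acetone diluted in water containing 0.1% SYNPERONIC NX wetting agent. Mortality was scored usually one to seven days after treatment.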

[2] = system: Musca domestica (houseflies - adults); experiment: Knockdown test, houseflies - adults (MD/KD), Cotton wool/sugar; details: 4 hours, read-out: MD/KD grading of knockdown
Summary of the method: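 Product was dissolved in acetone and diluted with water containing 0.1% wetting agent to 100–500 ppm. The flies and/or their food medium were treated with the preparation. Mortality was scored 1–7 days after treatment, with an additional knockdown assessment for houseflies.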

[3] = system: Musca domestica (houseflies - adults); experiment: Contact test, houseflies - adults (MD), Cotton wool/sugar; details: 24 h, 1 day, read-out: MD grading of mortality
Summary of the method: as §1

[4] = system: Blattella germanica (cockroach nymphs); experiment: Residual test, cockroach nymphs (BG), Plastic pot; details: 72 h, 3 days, read-out: BG grading of mortality
Summary of the method: as §1

[5] = system: Heliothis virescens (tobacco budworm - larvae); experiment: Residual test, tobacco budworm - larvae (HV), Cotton leaf; details: 72 h, read-out: HV grading of mortality
Summary of the method: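 Products applied as acetone solutions diluted in water with 0.1% wetting agent, at 100–500 ppm; pests on host plant or food, with pests and/or medium treated. Mortality or knockdown scored 1–7 days after treatment and graded A (80–100%), B (50–79%) or C (<50%).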

[6] = system: Spodoptera exigua (lesser army worm - larvae); experiment: Residual test, lesser army worm - larvae (SP), Cotton leaf; details: 72 h, 3 days, read-out: SP grading of mortality
Summary of the method: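 Compound dissolved in acetone and diluted in water with 0.1% Synperonic NX wetting agent to 100–500 ppm. Pests on host plant or food, with pests and/or medium treated. Mortality assessed 1–7 days after treatment and graded A (80–100%), B (50–79%) or C (<50%).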

[7] = system: Diabrotica balteata (rootworm larvae); experiment: Residual test, rootworm larvae (DB), Filter paper/maize seed; details: 72 h, 3 days, read-out: DB grading of mortality
Summary of the method: as §1

Nephotettix cincticeps = experiment: Contact test, leaf hopper in place of Nilaparvata lugens (NL**), Rice plant; details: 72 h, 3 days, read-out: NL** grading of mortality (Nephotettix cincticeps)
Method: (§2) The activity of the Product was determined using a variety of insect pests. The Product was used in the form of liquid preparations containing from 100 to 500 parts per million (ppm) by weight of the Product. The preparations were made by dissolving the Product in acetone and diluting the solutions with water containing 0.1% by weight of a wetting agent sold under the trade name "SYNPERONIC" NX until the liquid preparations contained the required concentration of the Product. "SYNPERONIC" is a Registered Trade Mark.
(§3) The test procedure adopted with regard to each pest was basically the same and comprised supporting a number of the pests on a medium which was usually a host plant or a foodstuff on which the pests feed, and treating either or both the pests and the medium with the preparations. The mortality of the pests was then assessed at periods usually varying from one to seven days after the treatment.
The results of the tests are given in Table III for each of the Products, at the rate in parts per million given in the second column as a grading of mortality designated as A, B or C wherein A indicates 80-100% mortality or knockdown (70-100% for Meloidogyne incognita), B indicates 50-79% mortality knockdown or knockdown (50-69% for Meloidogyne incognita) and C indicates less than 50% mortality or knockdown. […]

[8] = system: Tetranychus urticae (spider mites - ova); experiment: Contact test, spider mites - ova (TUe), French bean leaf; details: 144 h, 6 days, read-out: TUE grading of mortality
Summary of the method: as §1

[9] = system: Nilaparvata lugens (brown plant hopper - nymphs); experiment: Contact test, brown plant hopper - nymphs (NL), Rice plant; details: 72 h, 3 days, read-out: NL grading of mortality
Summary of the method: as §1

[10] = system: Meloidogyne incognita (Tomato root knot eelworm - larvae); experiment: Residual test, Tomato root knot eelworm - larvae (MI), Semi in-vitro; details: 168 h, application rate is half that recorded, 7 days, read-out: MI grading of mortality; for mortality at 125 µg/mL: rate 250 ppm
[11] = system: Chilo partellus (Maize stemborer - larvae); experiment: Residual test, Maize stemborer - larvae (CP), Oilseed rape; details: 72 h, 3 days, read-out: CP grading of mortality
Method: as §2, §3
The results of the tests are given in Table III for each of the Products, at the rate in parts per million given in the second column as a grading of mortality designated as A, B or C wherein A indicates 80-100% mortality or knockdown (70-100% for Meloidogyne incognita), B indicates 50-79% mortality knockdown or knockdown (50-69% for Meloidogyne incognita) and C indicates less than 50% mortality or knockdown.
In Table III the pest organism used is designated by a letter code and the pests species, the support medium or food, and the type and duration of test is given in Table II.
(Maize stemborer - larvae)

Structure (SMILES)	mortality at 250 ppm [1]	mortality at 250 ppm (Myzus persicae (aphids))	pest or weed control at 250 ppm [2]	mortality at 250 ppm [3]	mortality at 250 ppm [4]	mortality at 250 ppm [5]	mortality at 250 ppm [7]	mortality at 250 ppm [8]	mortality at 250 ppm [9]	mortality at 125 µg/mL [10]	mortality at 250 ppm [11]	also measured
FC(F)(F)COc1ccc(C(CCCc2cccc(Oc3ccccc3)c2)C(F)(F)F)cc1 (racemic) [Compound 73, 1,1,1-trifluoro-2-[4-(2,2,2-trifluoroethoxy)phenyl]-5-(3-phenoxyphenyl)pentane]	80 to 100%	80 to 100%	80 to 100%	80 to 100%	80 to 100%	80 to 100%	80 to 100%					mortality at 250 ppm ([6]; 250 ppm): 80 to 100%; mortality at 250 ppm (Nephotettix cincticeps; 250 ppm): 80 to 100%
Fc1ccc(CCCC(c2ccc(OC(F)(F)F)cc2)C(F)(F)F)cc1Oc1ccccc1 (racemic) [Compound 20, 1,1,1-Trifluoro-2-(4-trifluoromethoxyphenyl)-5-(4-fluoro-3-phenoxyphenyl)pentane]												mortality at 100 ppm ([1]; 100 ppm): 50 to 79%; mortality at 100 ppm ([8]; 100 ppm): 80 to 100%; mortality at 100 ppm (Myzus persicae (aphids); 100 ppm): 80 to 100%; mortality at 100 ppm ([9]; 100 ppm): 80 to 100%; pest or weed control at 100 ppm ([2]; 100 ppm): 80 to 100%; mortality at 100 ppm ([3]; 100 ppm): 80 to 100%; mortality at 100 ppm ([4]; 100 ppm): 80 to 100%; mortality at 100 ppm [5]: 80 to 100%; mortality at 100 ppm ([7]; 100 ppm): 80 to 100%; mortality at 50 µg/mL ([10]; rate column 100 ppm): < 50%; mortality at 100 ppm ([11]; 100 ppm): 80 to 100%
FC(F)(F)Oc1ccc(C(CCCc2cccc(Oc3ccccc3)c2)C(F)(F)F)cc1 (racemic) [Compound 9, 1,1,1-Trifluoro-2-(4-trifluoromethoxyphenyl)-5-(3-phenoxyphenyl)pentane]	80 to 100%	80 to 100%	80 to 100%	80 to 100%	80 to 100%	80 to 100%	80 to 100%	80 to 100%	80 to 100%	< 50%	80 to 100%	
CC(C)(C)c1ccc(C(CCCc2cccc(Oc3ccccc3)c2)C(F)(F)F)cc1 (racemic) [Compound 8, 1,1,1-Trifluoro-2-[4-(2-methylprop-2-yl)phenyl]-5-(3-phenoxyphenyl)pentane]	< 50%	< 50%	< 50%	< 50%	80 to 100%	80 to 100%	80 to 100%	< 50%	< 50%	70 to 100%	80 to 100%	
CCOc1ccc(C(CC=Cc2ccc(F)c(Oc3ccccc3)c2)C(F)(F)F)cc1 (centres unmarked) [Compound 32, 1,1,1-Trifluoro-2-(4-ethoxyphenyl)-5-(4-fluoro-3-phenoxyphenyl)pent-4-ene]	50 to 79%	80 to 100%	80 to 100%	80 to 100%	80 to 100%	80 to 100%	80 to 100%	< 50%	80 to 100%	< 50%	80 to 100%	
CCOc1ccc(C(CC=Cc2cccc(Oc3ccccc3)c2)C(F)(F)F)cc1 (centres unmarked) [Compound 31, 1,1,1-trifluoro-2-(4-ethoxyphenyl)-5-(3-phenoxyphenyl)pent-4-ene]	< 50%	80 to 100%	80 to 100%	80 to 100%	80 to 100%	80 to 100%	80 to 100%	< 50%	80 to 100%	< 50%	80 to 100%	
CCOc1ccc(/C(=C/CCc2cccc(Oc3ccccc3)c2)C(F)(F)F)cc1 [Compound 4, Z-1,1,1-trifluoro-2-(4-ethoxyphenyl)-5-(3-phenoxyphenyl)pent-2-ene]												mortality at 500 ppm [1]: < 50%; mortality at 500 ppm ([8]; 500 ppm): < 50%; mortality at 500 ppm (Myzus persicae (aphids)): < 50%; mortality at 500 ppm ([9]; 500 ppm): < 50%; pest or weed control at 500 ppm [2]: < 50%; mortality at 500 ppm [3]: < 50%; mortality at 500 ppm [4]: < 50%; mortality at 500 ppm [5]: 80 to 100%; mortality at 500 ppm [7]: < 50%; mortality at 250 µg/mL ([10]; rate column 500 ppm): < 50%; mortality at 500 ppm ([11]; 500 ppm): 80 to 100%
CC(C)(C)c1ccc(C(=CCCc2cccc(Oc3ccccc3)c2)C(F)(F)F)cc1 [Compound 6, 2-[4-(2-methylprop-2-yl)phenyl]-5-(3-phenoxyphenyl)-1,1,1-trifluoropent-2-ene]	< 50%	< 50%	< 50%	< 50%	80 to 100%	< 50%	< 50%	< 50%	< 50%	70 to 100%	80 to 100%	
Fc1ccc(CCC=C(c2ccc(OC(F)(F)F)cc2)C(F)F)cc1Oc1ccccc1 [Compound 26, 1,1-Difluoro-2-(4-trifluoromethoxyphenyl)-5-(4-fluoro-3-phenoxyphenyl)pent-2-ene]												mortality at 500 ppm [1]: 80 to 100%; mortality at 500 ppm (Myzus persicae (aphids)): 80 to 100%; pest or weed control at 500 ppm [2]: 80 to 100%; mortality at 500 ppm [3]: 80 to 100%; mortality at 500 ppm [4]: 80 to 100%; mortality at 500 ppm [5]: 80 to 100%; mortality at 500 ppm ([6]; 500 ppm): 80 to 100%; mortality at 500 ppm [7]: 50 to 79%; mortality at 500 ppm (Nephotettix cincticeps; 500 ppm): 80 to 100%

— US4791139A, “Diphenyl ether derivatives and their use as insecticides” (Imperial Chemical Industries PLC, priority 1986, dated 1988)
